IC50 data for 16 molecules are collected here from BindingDB's records for doi:10.1021/cb500893q (University of California Berkeley, 2015).

In this assay the target is T1, Platelet-activating factor acetylhydrolase IB subunit alpha2 (Mus musculus, UniProt Q61206).
T1 sequence (Q61206 whole entry): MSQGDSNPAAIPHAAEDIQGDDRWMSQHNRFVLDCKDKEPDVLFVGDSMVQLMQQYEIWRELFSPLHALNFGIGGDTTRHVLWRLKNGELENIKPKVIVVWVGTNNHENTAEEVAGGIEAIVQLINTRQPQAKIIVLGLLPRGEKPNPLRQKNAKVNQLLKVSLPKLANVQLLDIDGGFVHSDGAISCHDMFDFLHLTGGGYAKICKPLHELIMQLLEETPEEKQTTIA
The experiment in a line: Competitive ABPP Assays in Proteomes with FP-alkyne. The following applies: pH 7.5. As to the method:
Total protein concentrations for each fraction were adjusted to 1 mg/mL in PBS (50 μL total reaction volume). Samples were then subjected to click chemistry by the addition of 1 mM CuSO4 (1 μL of a 50x stock in DMSO), followed by TBTA (3 μL of a 17x stock in 4:1 t-butanol:DMSO), then 25 μM Rh-N3 (1 μL of a 50x stock in DMSO) and 1 mM TCEP (1 μL of a 50x stock in DMSO). Reactions were vortexed, incubated for 1 h at 25 °C, and quenched with 4x SDS-PAGE loading buffer and analyzed by in-gel fluorescence scanning.
As usually defined, the IC50 is the point on the concentration scale where inhibition reaches its midpoint. A higher IC50 goes with lower potency. Regarding `Cc1ccc(C2CC=C(C(=O)O)C(c3ccc(C(C)(C)C)cc3)N2S(=O)(=O)c2ccc(C)cc2)cc1` (stereo unspecified) [2-(4-tert-butylphenyl)-1-(4-methylbenzenesulfonyl)-6-(4-methylphenyl)-1,2,5,6-tetrahydropyridine-3-carboxylic acid (P11)], the IC50 stood at 0.8 µM.

In turn, `Cc1ccc(S(=O)(=O)N2C(c3ccc(Cl)cc3)CC=C(C(=O)O)C2c2ccc(Br)cc2)cc1` (stereo unspecified) [2-(4-bromophenyl)-6-(4-chlorophenyl)-1-(4-methylbenzenesulfonyl)-1,2,5,6-tetrahydropyridine-3-carboxylic acid (H4)] had an IC50 of 1.1 µM.

On to `Cc1ccc(C2CC=C(CBr)C(c3ccc(C(C)(C)C)cc3)N2S(=O)(=O)c2ccc(C)cc2)cc1` (stereo unspecified) [5-(bromomethyl)-6-(4-(tert-butyl)phenyl)-2-(p-tolyl)-1-tosyl-1,2,3,6-tetrahydropyridine (JW1058)], for which the IC50 stood at 4.6 µM.

For the molecule `Cc1ccc(C2CC=C(C(=O)O)C(c3cccc(Cl)c3)N2S(=O)(=O)c2ccc(C)cc2)cc1` (stereo unspecified) [2-(3-chlorophenyl)-1-(4-methylbenzenesulfonyl)-6-(4-methylphenyl)-1,2,5,6-tetrahydropyridine-3-carboxylic acid (J13)], the IC50 was determined as 8.2 µM.

The molecule `C=CCNC(=O)C1=CCC(c2ccc(C)cc2)N(S(=O)(=O)c2ccc(C)cc2)C1c1ccc(C(C)(C)C)cc1` (stereo unspecified) [N-allyl-2-(4-(tert-butyl)phenyl)-6-(p-tolyl)-1-tosyl-1,2,5,6-tetrahydropyridine-3-carboxamide (JW1043)] showed an IC50 of 7.5 µM.

`Cc1ccc(C2CC=C(C(=O)NC3CC3)C(c3ccc(C(C)(C)C)cc3)N2S(=O)(=O)c2ccc(C)cc2)cc1` (stereo unspecified) [2-(4-(tert-butyl)phenyl)-N-cyclopropyl-6-(p-tolyl)-1-tosyl-1,2,5,6-tetrahydropyridine-3-carboxamide (JW1038)] had a concentration for half-maximal inhibition (IC50) of 9.3 µM.

Take `Cc1ccc(C2CC=C(C(=O)O)C(c3ccc(F)cc3)N2S(=O)(=O)c2ccc(C)cc2)cc1` (stereo unspecified) [2-(4-fluorophenyl)-1-(4-methylbenzenesulfonyl)-6-(4-methylphenyl)-1,2,5,6-tetrahydropyridine-3-carboxylic acid (O8)]: the IC50 was 2 µM.

`Cc1ccc(C2C(C(=O)O)=CCC(c3ccc(C(C)C)cc3)N2S(=O)(=O)c2ccc(C)cc2)cc1` (stereo unspecified) [1-(4-methylbenzenesulfonyl)-2-(4-methylphenyl)-6-[4-(propan-2-yl)phenyl]-1,2,5,6-tetrahydropyridine-3-carboxylic acid (F5)] displayed an IC50 of 4.5 µM.

Take `Cc1ccc(C2CC=C(CNC3CC3)C(c3ccc(C(C)(C)C)cc3)N2S(=O)(=O)c2ccc(C)cc2)cc1` (stereo unspecified) [N-((2-(4-(tert-butyl)phenyl)-6-(p-tolyl)-1-tosyl-1,2,5,6-tetrahydropyridin-3-yl)methyl)cyclopropanamine (JW1061)]: the IC50 was found to be 7.6 µM.

Take `Cc1ccc(S(=O)(=O)N2C(c3ccc(C(C)C)cc3)CC=C(C(=O)O)C2c2ccc(F)cc2)cc1` (stereo unspecified) [2-(4-fluorophenyl)-1-(4-methylbenzenesulfonyl)-6-[4-(propan-2-yl)phenyl]-1,2,5,6-tetrahydropyridine-3-carboxylic acid (B6)]: the IC50 is 1.1 µM.

In turn, `CCc1ccc(C2CC=C(C(=O)O)C(c3cccc(Cl)c3)N2S(=O)(=O)c2ccc(C)cc2)cc1` (stereo unspecified) [2-(3-chlorophenyl)-6-(4-ethylphenyl)-1-(4-methylbenzenesulfonyl)-1,2,5,6-tetrahydropyridine-3-carboxylic acid (J8)] registered a half-maximal inhibitory concentration (IC50) of 9.4 µM. Against the preceding molecule, the IC50 is about 8.5-fold higher.

As to `CNC(=O)C1=CCC(c2ccc(C)cc2)N(S(=O)(=O)c2ccc(C)cc2)C1c1ccc(C(C)(C)C)cc1` (stereo unspecified) [2-(4-(tert-butyl)phenyl)-N-methyl-6-(p-tolyl)-1-tosyl-1,2,5,6-tetrahydropyridine-3-carboxamide (JW1036)], the IC50 was more than 10 µM.

`Cc1ccc(S(=O)(=O)N2C(c3ccc(Cl)c(Cl)c3)CC=C(C(=O)O)C2c2ccc(Br)cc2)cc1` (stereo unspecified) [2-(4-bromophenyl)-6-(3,4-dichlorophenyl)-1-(4-methylbenzenesulfonyl)-1,2,5,6-tetrahydropyridine-3-carboxylic acid (K9)] had an IC50 of 1.4 µM.

For the molecule `COC(=O)C1=CCC(c2ccc(C)cc2)N(S(=O)(=O)c2ccc(C)cc2)C1c1ccc(C(C)(C)C)cc1` (stereo unspecified) [Methyl-2-(4-(tert-butyl)phenyl)-6-(p-tolyl)-1-tosyl-1,2,5,6-tetrahydropyridine-3-carboxylate (JW1068)], the IC50 was more than 10 µM.

Molecule `Cc1ccc(C2CC=C(C(=O)NC3CCCCC3)C(c3ccc(C(C)(C)C)cc3)N2S(=O)(=O)c2ccc(C)cc2)cc1` (stereo unspecified) [2-(4-(tert-butyl)phenyl)-N-cyclohexyl-6-(p-tolyl)-1-tosyl-1,2,5,6-tetrahydropyridine-3-carboxamide (JW1039)] returned an IC50 of more than 10 µM.

In turn, `COCCNC(=O)C1=CCC(c2ccc(C)cc2)N(S(=O)(=O)c2ccc(C)cc2)C1c1ccc(C(C)(C)C)cc1` (stereo unspecified) [2-(4-(tert-butyl)phenyl)-N-(2-methoxyethyl)-6-(p-tolyl)-1-tosyl-1,2,5,6-tetrahydropyridine-3-carboxamide (JW1041)] returned an IC50 of 1.7 µM. This counts as single-digit micromolar.
